Source: PMC8286840, “Identifying SARS-CoV-2 antiviral compounds by screening for small molecule inhibitors of Nsp3 papain-like protease” (Biochemical Journal, 2021)
Counter-ions that a name gives are not always drawn. Like-named read-outs stand apart in the source and are kept apart here. Where a SMILES comes first, the peptide text is derived from it. The star is where a group is joined. Cbz = O=C(OCc1ccccc1)*

How the values were obtained:
[1] = molecular target: T1, SARS-CoV-2 PLpro (nsp3 1564–1878) (Severe acute respiratory syndrome coronavirus 2, UniProt P0DTD1); test: biochemical; parameters: FRET-quenched peptide (Pro3) cleavage by PLpro, 10 min pre-incubation, slope over 20 min, normalised to no-compound control; conditions: low concentration screen, read-out: % of control remaining
[2] = molecular target: T1, SARS-CoV-2 PLpro (nsp3 1564–1878); test: biochemical; parameters: FRET-quenched peptide (Pro3) cleavage by PLpro, 10 min pre-incubation, slope over 20 min, normalised to no-compound control; conditions: high concentration screen, read-out: % of control remaining

## COc1ccc2c(c1)c(CC(=O)Nc1ccc(NC(C)=O)cc1)c(C)n2C(=O)c1ccc(Cl)cc1 [N-(4-acetamidophenyl)indomethacinamide]
[1]; Well no.=343
  remaining activity at 1.25 µM: 98.3%
[2]; Well no.=343
  remaining activity at 3.75 µM: 97.9%

## O=C(NCCCN1CCC2(CC1)OCc1ccccc12)[C@H]1CCCN1Cc1ccccc1 [BAN ORL 24]
[1]; Well no.=6946
  remaining activity at 1.25 µM: 97.7%
[2]; Well no.=6946
  remaining activity at 3.75 µM: 102%

## Cc1ccc(C(=O)COC(=O)c2cccc(NC(=O)c3ccc([N+](=O)[O-])cc3[N+](=O)[O-])c2)cc1 [FM19G11]
[1]; Well no.=5606
  remaining activity at 1.25 µM: 93.7%
[2]; Well no.=5606
  remaining activity at 3.75 µM: 96.9%

## C[C@H](O)[C@H](O)[C@H]1CNc2nc(N)[nH]c(=O)c2N1 [Tetrahydrobiopterin]
[1]; Well no.=6159
  remaining activity at 1.25 µM: 108%
[2]; Well no.=6159
  remaining activity at 3.75 µM: 109%

## CO[C@H]1[C@@H](O)[C@@H](C)O[C@H](O[C@H]2[C@H](Oc3cccc4c(O)c5c(=O)oc6ccc(C)c7c(=O)oc(c34)c5c67)O[C@H](C)[C@H](O)[C@@H]2O)[C@@H]1O [Chartreusin]
[1]; Well no.=3508
  remaining activity at 1.25 µM: 96.6%
[2]; Well no.=3508
  remaining activity at 3.75 µM: 98.4%

## c1cc(-c2sc(-c3ccncc3)c(-c3ccncc3)c2-c2ccncc2)ccn1 [GANT58]
[1]; Well no.=5874
  remaining activity at 1.25 µM: 94.6%
[2]; Well no.=5874
  remaining activity at 3.75 µM: 86.5%

## CCCS(=O)(=O)Nc1ccc(F)c(C(=O)c2c[nH]c3ncc(Cl)cc23)c1F [PLX4720]
[1]; Well no.=2795
  remaining activity at 1.25 µM: 97.5%
[2]; Well no.=2795
  remaining activity at 3.75 µM: 99.9%

## CCCN(CCC)[C@@H]1CCc2ccc(O)cc2C1 [R-(+)-7-Hydroxy-DPAT hydrobromide]
[1]; Well no.=428
  remaining activity at 1.25 µM: 97.2%
[2]; Well no.=428
  remaining activity at 3.75 µM: 96.9%

## CC(C)C[C@@H](C(=O)N[C@H](C(=O)OC1CCCC1)c1ccccc1)[C@H](O)C(=O)NO [Tosedostat (CHR2797)]
[1]; Well no.=4880
  remaining activity at 1.25 µM: 93.4%
[2]; Well no.=4880
  remaining activity at 3.75 µM: 88.9%

## CC(C)N1CCC(N2CCCN(c3cccc(C(=O)Nc4ccncc4)n3)CC2)CC1 [USL311]
[1]; Well no.=8707
  remaining activity at 1.25 µM: 99.4%
[2]; Well no.=8707
  remaining activity at 3.75 µM: 103%

## CCN1CCCC1CNC(=O)c1cc(S(=O)(=O)CC)c(N)cc1OC (centres unmarked) [Amisulpride]
[1]; Well no.=2275
  remaining activity at 1.25 µM: 93.3%
[1]; Well no.=8149
  remaining activity at 1.25 µM: 107%
[2]; Well no.=2275
  remaining activity at 3.75 µM: 97.7%
[2]; Well no.=8149
  remaining activity at 3.75 µM: 107%

## COc1cc2c(cc1OC)CC(=O)N(CCCN(C)C[C@H]1Cc3cc(OC)c(OC)cc31)CC2 [Ivabradine (hydrochloride)]
[1]; Well no.=7625
  remaining activity at 1.25 µM: 99.3%
[2]; Well no.=7625
  remaining activity at 3.75 µM: 94.7%

## CC(C)C[C@H](NC(=O)[C@@H](O)[C@H](N)Cc1ccccc1)C(=O)O [Bestatin]
[1]; Well no.=8068
  remaining activity at 1.25 µM: 98.5%
[2]; Well no.=8068
  remaining activity at 3.75 µM: 97.8%

## CC(C)C[C@@H](C=O)NC(=O)[C@H](CC(C)C)NC(=O)[C@H](CC(C)C)NC(=O)OCc1ccccc1 [MG-132] (Cbz-Leu-Leu-Leu-aldehyde)
[1]; Well no.=8436
  remaining activity at 1.25 µM: 96.8%
[2]; Well no.=8436
  remaining activity at 3.75 µM: 97.5%

## COc1cc2c(c(OC)c1OC)-c1c(cc(OC)c(OC)c1OC)C[C@H](C)[C@H](C)C2 [R(+)-Schisandrin A]
[1]; Well no.=3741
  remaining activity at 1.25 µM: 91.7%
[2]; Well no.=3741
  remaining activity at 3.75 µM: 93.8%

## Cc1cc(-c2nnc(N)nc2-c2ccc(F)cc2)cc(Cl)n1 [AZD4635]
[1]; Well no.=8355
  remaining activity at 1.25 µM: 98.3%
[2]; Well no.=8355
  remaining activity at 3.75 µM: 96%

## Cn1cncc1C[C@H](NC(=O)CCN)C(=O)O [Anserine]
[1]; Well no.=6581
  remaining activity at 1.25 µM: 102%
[1]; Well no.=7890
  remaining activity at 1.25 µM: 91.9%
[2]; Well no.=6581
  remaining activity at 3.75 µM: 103%
[2]; Well no.=7890
  remaining activity at 3.75 µM: 95.1%

## Oc1cc(O)c2c(c1)O[C@H](c1ccc(O)c(O)c1)[C@@H](O)C2 [(+)-Catechin Hydrate]
[1]; Well no.=283
  remaining activity at 1.25 µM: 98%
[2]; Well no.=283
  remaining activity at 3.75 µM: 99.7%

## CN(C)CCC=C1c2ccccc2CCc2ccccc21 [Amitriptyline.HCl]
[1]; Well no.=2122
  remaining activity at 1.25 µM: 102%
[2]; Well no.=2122
  remaining activity at 3.75 µM: 104%

## CC(C(O)c1ccc(O)cc1)N1CCC(Cc2ccccc2)CC1 (centres unmarked) [Ifenprodil tartrate]
[1]; Well no.=867
  remaining activity at 1.25 µM: 103%
[1]; Well no.=1685
  remaining activity at 1.25 µM: 102%
[2]; Well no.=867
  remaining activity at 3.75 µM: 103%
[2]; Well no.=1685
  remaining activity at 3.75 µM: 104%

## Cc1cc2c(cc1Cl)N(C(=O)Nc1ccc(Oc3cccnc3C)nc1)CC2 [SB 242084 dihydrochloride]
[1]; Well no.=1222
  remaining activity at 1.25 µM: 102%
[2]; Well no.=1222
  remaining activity at 3.75 µM: 102%

## C=CC(=O)Nc1cc2c(Nc3ccc(F)c(Cl)c3)ncnc2cc1OCCCN1CCOCC1 [Canertinib]
[1]; Well no.=2693
  remaining activity at 1.25 µM: 105%
[2]; Well no.=2693
  remaining activity at 3.75 µM: 107%

## CC[C@H]1OC(=O)C[C@@H](O)[C@H](C)[C@@H](O[C@@H]2O[C@H](C)[C@@H](O[C@H]3C[C@@](C)(O)[C@@H](O)[C@H](C)O3)[C@H](N(C)C)[C@H]2O)[C@@H](CC=O)C[C@@H](C)C(=O)/C=C/C(C)=C/[C@@H]1CO[C@@H]1O[C@H](C)[C@@H](O)[C@@H](OC)[C@H]1OC [Tylosin tartrate]
[1]; Well no.=4985
  remaining activity at 1.25 µM: 95.4%
[2]; Well no.=4985
  remaining activity at 3.75 µM: 93%

## NC(=O)N1CCC(CC(=O)N2CCC([C@H]3c4ncc(Br)cc4CCc4cc(Cl)cc(Br)c43)CC2)CC1 [Lonafarnib (SCH66336)]
[1]; Well no.=4781
  remaining activity at 1.25 µM: 105%
[2]; Well no.=4781
  remaining activity at 3.75 µM: 101%

## CC[C@H](C(=O)N1CCCC[C@H]1C(=O)O[C@H](CCc1ccc(OC)c(OC)c1)c1cccc(OCC(=O)NCC(CNC(=O)COc2cccc([C@@H](CCc3ccc(OC)c(OC)c3)OC(=O)[C@@H]3CCCCN3C(=O)[C@@H](CC)c3cc(OC)c(OC)c(OC)c3)c2)CN(C)C)c1)c1cc(OC)c(OC)c(OC)c1 [AP20187]
[1]; Well no.=7174
  remaining activity at 1.25 µM: 98.8%
[1]; Well no.=7696
  remaining activity at 1.25 µM: 102%
[2]; Well no.=7174
  remaining activity at 3.75 µM: 100%
[2]; Well no.=7696
  remaining activity at 3.75 µM: 97.5%

## CCn1cc(-c2ccnc3[nH]c(-c4cccc(CN(C)C)c4)cc23)c(-c2ccc(NC(=O)N(C)C)cc2)n1 [GSK1070916]
[1]; Well no.=5031
  remaining activity at 1.25 µM: 101%
[2]; Well no.=5031
  remaining activity at 3.75 µM: 99.8%

## CC(C)(C)NCC(O)c1ccc(O)c(CO)c1 (centres unmarked) [Salbutamol (hemisulfate)]
[1]; Well no.=7577
  remaining activity at 1.25 µM: 95.6%
[2]; Well no.=7577
  remaining activity at 3.75 µM: 96.7%

## C[C@@H]1O[C@@H](O[C@H]2[C@H](Oc3cc(O)c4c(=O)c(O)c(-c5ccc(O)cc5)oc4c3)O[C@H](CO)[C@@H](O)[C@@H]2O)[C@H](O)[C@H](O)[C@H]1O [Kaempferol-7-neohesperidoside]
[1]; Well no.=3307
  remaining activity at 1.25 µM: 102%
[2]; Well no.=3307
  remaining activity at 3.75 µM: 103%

## CS(=O)(=O)c1cccc(C[C@H](NC(=O)c2c(Cl)cc3c(c2Cl)CCN(C(=O)c2ccc4ccoc4c2)C3)C(=O)O)c1 [Lifitegrast]
[1]; Well no.=8038
  remaining activity at 1.25 µM: 94.5%
[2]; Well no.=8038
  remaining activity at 3.75 µM: 95.3%

## c1ccc2c(-c3ccncc3)c[nH]c2c1 [Rho Kinase Inhibitor III, Rockout]
[1]; Well no.=2557
  remaining activity at 1.25 µM: 101%
[2]; Well no.=2557
  remaining activity at 3.75 µM: 103%
